Here are results for 24 compounds from PubChem BioAssay AID839 (SRMLSC, 2007).

The structures appear in SMILES notation. Activity calls are given as the source filed them. No rule for the calls is given here.

This assay can be described thus: yeast growth inhibition, transport mutant vs wild type, confirmation, post-Golgi transport mutant, OD600 growth rate (AID 839). The conditions noted are these: yeast transport mutant vs control strains, stronger effect = higher value.
The mark [1] stands for this setting: measured here: mutant growth inhibition 20 uM, at 20 µM.
Where [2] appears, read: measured here: wild type growth inhibition 20 uM, at 20 µM.
Setting [3] is: measured here: wild type growth inhibition 40 uM, at 40 µM.

On to `Cc1ccc(OCC(O)CN2CCN(Cc3ccc4c(c3)OCO4)CC2)c(C)c1` (stereo unspecified), for which the growth inhibition reads like this: (at 40 µM) 33%; under setting [1], 12.9%; under setting [2], 2.63%; under setting [3], 10%.
`Cc1ccc(CN2CCN(/N=C/c3cc(Br)ccc3O)CC2)cc1`: the growth inhibition runs as follows: (at 40 µM) 21.1%; under setting [1], 18.9%; under setting [2], 7.91%; under setting [3], 7.23%.
On the same counts, the results for `CCCCCOc1ccc(Cl)cc1CN1CCOCC1` are 17.8%, 26%, 7.83% and -7.6%.
On the same counts, the results for `Cc1nc(NC(=O)c2ccccc2)sc1-c1csc(NCc2ccccc2)n1` are 32.7%, 20%, 6.67% and 15%.
On the same counts, the results for `CC1CN(CCCCOc2ccc(C(C)C)cc2)CC(C)O1` (stereo unspecified) are 26.4%, 12.1%, 2.42% and 7.83%.
In the case of `C=C(C)C1CC=C(CN2CC(C)OC(C)C2)CC1` (stereo unspecified), the growth inhibition reads like this: (at 40 µM) 4.31%; under setting [1], 11.8%; under setting [2], 13.7%; under setting [3], 1.76%.
On the same counts, the results for `O=C(COc1ccc(Br)cc1F)NC1CCN(Cc2ccccc2)CC1` are 27.4%, 12.6%, 2.81% and 5.41%.
For `Clc1cc(Br)ccc1OCCOCCN1CCOCC1`, in that order: 8.89%, 8.52%, 2.58% and 3.79%.
For `CC(C)c1ccc(C(=O)CSc2n[nH]c(-c3ccncc3)n2)cc1`, in that order: 12.5%, 7.43%, 4.42% and 13.6%.
Consider `O=C(C1COc2ccccc2O1)N1CCN(Cc2ccc3c(c2)OCO3)CC1` (stereo unspecified), for which the growth inhibition was 7.29% (at 40 µM), 6.43% under setting [1], -1.59% under setting [2] and 5.57% under setting [3].
On the same counts, the results for `O=S(=O)(c1ccc(Cl)cc1)N1CCN(C2CCN(Cc3ccccc3)CC2)CC1` are 10.4%, 7.74%, 0.396% and 3.66%.
On the same counts, the results for `O=C(COc1ccc(Cl)cc1Cl)NCCCN1CCOCC1` are 6.19%, 7.28%, 3.8% and 6.18%.
On the same counts, the results for `N=c1c2c(-c3ccccc3)c(-c3ccccc3)n(Cc3ccco3)c2ncn1Cc1ccccc1` are 38.2%, 8.14%, 9.7% and 12.7%.
As to `CC1CCCN(CCOCCOc2ccc(Cl)cc2Br)C1` (stereo unspecified), the growth inhibition is, setting by setting: (at 40 µM) 53.2%; under setting [1], 23.4%; under setting [2], 8.13%; under setting [3], 12.7%.
On the same counts, the results for `CC1CN(CC(O)COc2ccc(C(C)C)cc2)CC(C)O1` (stereo unspecified) are 8.85%, 5.56%, -2.84% and -1.47%.
On the same counts, the results for `CCOC(=O)COc1ccccc1C1Nc2ccccc2C(=O)N1c1cccc(Cl)c1` (stereo unspecified) are 21.1%, 19.4%, 13% and 24.8%.
On the same counts, the results for `Cc1ccc(Cl)c(OCCCCN(C)Cc2ccccc2)c1` are 72.6%, 31.6%, 11.1% and 22.1%.
On to `C=C(C)C1CC=C(CN2CCC(C(=O)OCC)CC2)CC1` (stereo unspecified), for which the growth inhibition by setting is: (at 40 µM) 1.06% (inactive); under setting [1], -2.77%; under setting [2], 0.148%; under setting [3], 1.89%.
As to `Clc1ccc(Cn2nnc(-c3ccc(CN4CCOCC4)cc3)n2)cc1`, the growth inhibition is 26.7% (at 40 µM), 11.9% under setting [1], 8.16% under setting [2] and 12.6% under setting [3].
For `O=C(OCn1ncc(Cl)c(Cl)c1=O)c1ccc(C(F)(F)F)cc1`, the growth inhibition is, setting by setting: (at 40 µM) 46.7%; under setting [1], 50.9%; under setting [2], 13.4%; under setting [3], 16.2%.
For the compound `CCCCCCOc1ccc(CN2CCN(CCO)CC2)cc1`, the growth inhibition was 33.4% (at 40 µM), 20.7% under setting [1], 7.37% under setting [2] and 13.6% under setting [3].
In the case of `Cc1ccc(C(=O)c2c(NC(=O)c3ccncc3)sc3c2CCCC3)cc1`, the growth inhibition is 14.7% (at 40 µM), 19.8% under setting [1], 13.5% under setting [2] and 18.9% under setting [3].
As to `Cc1cc(C(C)(C)C)ccc1OCCN1CCCC1`, the growth inhibition runs as follows: (at 40 µM) 18.2%; under setting [1], 18.4%; under setting [2], 7.77%; under setting [3], 7.54%.
Consider `CC1CC(C)CN(CCOc2ccc(Cl)cc2Cl)C1` (stereo unspecified), for which the growth inhibition reads like this: (at 40 µM) 46.7%; under setting [1], 30.7%; under setting [2], 8.64%; under setting [3], 14.7%.
